Test results: ChEMBL document CHEMBL3632512, “Inhibition of 3-deoxy-D-arabino-heptulosonate 7-phosphate synthase from Mycobacterium tuberculosis: in silico screening and in vitro validation” (Eur J Med Chem, 2015)
Active and inactive are the calls of the source. No cut-off for these calls is given here.

Legend:
[1] = tested on: Mycobacterium tuberculosis; experiment: (§1) Inhibition of Mycobacterium tuberculosis MTCC 300 DAH7PS expressed in Escherichia coli BL21 (DE3) using 25 to 125 uM PEP/100 uM E4P as substrate by spectrophotometric analysis
[2] = as §1
[3] = tested on: Mycobacterium tuberculosis; experiment: Inhibition of Mycobacterium tuberculosis MTCC 300 DAH7PS expressed in Escherichia coli BL21 (DE3) using 25 to 125 uM PEP/100 uM E4P as substrate up to 50 nM by spectrophotometric analysis
[4] = tested on: Mycobacterium tuberculosis; experiment: Inhibition of Mycobacterium tuberculosis MTCC 300 DAH7PS expressed in Escherichia coli BL21 (DE3) using 25 to 125 uM PEP/100 uM E4P as substrate at 10 uM by spectrophotometric analysis relative to control

SMILES	inhibition [1]	IC50 [2] [µM]	inhibition [3]	inhibition [4] [%]
Cc1c(C)c2c(c(C)c1O)CC[C@@](C)(CCC[C@H](C)CCC[C@H](C)CCCC(C)C)O2 [ALPHA-TOCOPHEROL]	Dose-dependent effect	21	inactive	21
O=Cc1cccnc1 [NICOTINALDEHYDE]	Dose-dependent effect	54	inactive	16
C[C@]1(O)CC[C@@H]2C(C(=O)O)=CO[C@@H](O[C@@H]3O[C@H](CO)[C@@H](O)[C@H](O)[C@H]3OC(=O)c3ccc(O)cc3)[C@@H]21 [NEGUNDOSIDE]		159	inactive	8
C[C@@H]1O[C@@H](OC[C@H]2O[C@@H](Oc3c(-c4ccc(O)c(O)c4)oc4cc(O)cc(O)c4c3=O)[C@H](O)[C@@H](O)[C@@H]2O)[C@H](O)[C@H](O)[C@H]1O [RUTIN]	Dose-dependent effect	42	inactive	17
N[C@@H](Cc1ccc(O)cc1)C(=O)O [TYROSINE]		13		41
O=C(/C=C/c1ccc(O)c(O)c1)O[C@@H]1C[C@](O)(C(=O)O)C[C@@H](O)[C@H]1O [CHLOROGENIC ACID]		291	inactive	9
